Data as given in patent US20020137929A1, “1 - (3-heterocyclylphenyl) isothiourea, -isourea, -guanidine and -amidine herbicidal agents” (Intellectual Property Department, BASF Aktiengesellschaft, priority 1998, published 2002).

Assays:
CYPSE (Flatsedge) = test: Preemergence weed control under flooded paddy conditions; assay type: in vivo, Cyperus serotinus; conditions: rated 3-4 weeks after treatment
In short: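 Seeds or propagules sown in silt loam kept flooded 1.5-3 cm; compounds in 50/50 acetone/water pipetted into flood water at about 0.0313 to 0.500 kg/ha. Greenhouse; visual 0-9 rating versus untreated control 3-4 weeks after treatment.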

AMBEL (Ragweed, Common) [1] = test: Postemergence herbicidal evaluation; assay type: in vivo, Ambrosia artemisifolia; conditions: postemergence
In short: (§1)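 Seedlings grown about two weeks were sprayed at 40 psi with compound dispersed in 50/50 acetone/water plus 0.5% TWEEN 20, at about 0.0156 to 0.500 kg/ha. Plants were kept in the greenhouse and scored 4–5 weeks later on a 0–9 visual scale against untreated controls.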

ECHCG (Barnyardgrass) = test: Postemergence herbicidal evaluation; assay type: in vivo, Echinochloa crus-galli; conditions: postemergence
In short: as §1

ZEAMX (Corn, Field) = test: Postemergence herbicidal evaluation; assay type: in vivo, Zea mays; conditions: postemergence
In short: as §1

[2] = tested on: CHEAL (Lambsquarters, Common); test: Postemergence herbicidal evaluation; assay type: in vivo, Chenopodium album; conditions: postemergence
In short: as §1

GALAP (Galium) = test: Preemergence herbicidal evaluation; assay type: in vivo, Galium aparine; conditions: rated 4-5 weeks after treatment
In short: (§2)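 Rating at 4–5 wk post-spray on a 0–9 visual scale vs control. Application: aqueous acetone, ~0.0156–0.500 kg/ha, to soil surface after seeding, preemergence.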

[3] = tested on: CHEAL (Lambsquarters, Common); test: Preemergence herbicidal evaluation; assay type: in vivo, Chenopodium album; conditions: rated 4-5 weeks after treatment
In short: as §2

AMBEL (Ragweed, Common) [4] = test: Preemergence herbicidal evaluation; assay type: in vivo, Ambrosia artemisifolia; conditions: rated 4-5 weeks after treatment
In short: as §2

ABUTH (Velvetleaf) = test: Postemergence herbicidal evaluation; assay type: in vivo, Abutilon theophrasti; conditions: postemergence
In short: as §1

[5] = tested on: GLXMAW (Soybean, Williams); test: Postemergence herbicidal evaluation; assay type: in vivo, Glycine max, (L.) Merr. cv Williams; conditions: postemergence
In short: as §1

CASOB (Sicklepod) = test: Preemergence herbicidal evaluation; assay type: in vivo, Cassia obtusifolia; conditions: rated 4-5 weeks after treatment
In short: as §2

ORYSAT (Rice, Tebonnet) = test: Postemergence herbicidal evaluation; assay type: in vivo, Oryza sativa, (L.) Tebonnet; conditions: postemergence
In short: as §1

[6] = rate 0.0156 kg/ha, rating scale 0-9
[7] = rate 0.0313 kg/ha, rating scale 0-9
[8] = rate 0.0625 kg/ha, rating scale 0-9
[9] = rate 0.1250 kg/ha, rating scale 0-9
[10] = rate 0.2500 kg/ha, rating scale 0-9

SMILES: Cn1c(C(F)(F)F)cc(=O)n(-c2cc(N=C3SCC(=O)N3Cc3cccc(C(F)(F)F)c3)c(Cl)cc2F)c1=O [Compound 142, 3-{4-Chloro-2-fluoro-5-{{3-[m-(trifluoromethyl)benzyl]-4-oxo-2-thiazolidinylidene}-amino}phenyl}-1-methyl-6-(trifluoromethyl)-2,4(1H,3H)-pyrimidinedione]
- herbicidal effect rating, CYPSE (CYPSE (Flatsedge); 0.1250 kg/ha): 0.0
- herbicidal effect rating, CYPSE (CYPSE (Flatsedge); 0.2500 kg/ha): 0.0
- herbicidal rating AMBEL (AMBEL (Ragweed, Common) [1]; rate 0.0156 kg/ha): 9.0
- herbicidal rating AMBEL (AMBEL (Ragweed, Common) [1]; rate 0.0313 kg/ha): 9.0
- herbicidal rating AMBEL (AMBEL (Ragweed, Common) [1]; rate 0.0625 kg/ha): 9.0
- herbicidal rating ECHCG (ECHCG (Barnyardgrass); rate 0.0156 kg/ha): 1.0
- herbicidal rating ECHCG (ECHCG (Barnyardgrass); rate 0.0313 kg/ha): 1.0
- herbicidal rating ECHCG (ECHCG (Barnyardgrass); rate 0.0625 kg/ha): 2.0
- herbicidal rating ZEAMX (ZEAMX (Corn, Field); rate 0.0156 kg/ha): 4.0
- herbicidal rating ZEAMX (ZEAMX (Corn, Field); rate 0.0313 kg/ha): 4.0
- herbicidal rating ZEAMX (ZEAMX (Corn, Field); rate 0.0625 kg/ha): 4.5
- herbicidal rating CHEAL ([2]; rate 0.0156 kg/ha): 4.0
- herbicidal rating CHEAL ([2]; rate 0.0313 kg/ha): 9.0
- herbicidal rating CHEAL ([2]; rate 0.0625 kg/ha): 9.0
- Preemergence herbicidal rating GALAP (GALAP (Galium); [6]): 0.0
- Preemergence herbicidal rating GALAP (GALAP (Galium); [7]): 0.0
- Preemergence herbicidal rating GALAP (GALAP (Galium); [8]): 0.0
- Preemergence herbicidal rating GALAP (GALAP (Galium); [9]): 0.0
- Preemergence herbicidal rating GALAP (GALAP (Galium); [10]): 9.0
- Preemergence herbicidal rating CHEAL [3, 6]: 4.0
- Preemergence herbicidal rating CHEAL [3, 7]: 3.0
- Preemergence herbicidal rating CHEAL [3, 8]: 9.0
- Preemergence herbicidal rating CHEAL [3, 9]: 9.0
- Preemergence herbicidal rating CHEAL [3, 10]: 9.0
- Preemergence herbicidal rating AMBEL (AMBEL (Ragweed, Common) [4]; [6]): 0.0
- Preemergence herbicidal rating AMBEL (AMBEL (Ragweed, Common) [4]; [7]): 0.0
- Preemergence herbicidal rating AMBEL (AMBEL (Ragweed, Common) [4]; [8]): 4.0
- Preemergence herbicidal rating AMBEL (AMBEL (Ragweed, Common) [4]; [9]): 2.0
- Preemergence herbicidal rating AMBEL (AMBEL (Ragweed, Common) [4]; [10]): 1.0
- herbicidal rating ABUTH (ABUTH (Velvetleaf); rate 0.0156 kg/ha): 3.0
- herbicidal rating ABUTH (ABUTH (Velvetleaf); rate 0.0313 kg/ha): 9.0
- herbicidal rating ABUTH (ABUTH (Velvetleaf); rate 0.0625 kg/ha): 9.0
- herbicidal rating GLXMAW ([5]; rate 0.0156 kg/ha): 5.0
- herbicidal rating GLXMAW ([5]; rate 0.0313 kg/ha): 5.0
- herbicidal rating GLXMAW ([5]; rate 0.0625 kg/ha): 5.5
- Preemergence herbicidal rating CASOB (CASOB (Sicklepod); [6]): 1.0
- Preemergence herbicidal rating CASOB (CASOB (Sicklepod); [7]): 0.0
- Preemergence herbicidal rating CASOB (CASOB (Sicklepod); [8]): 2.0
- Preemergence herbicidal rating CASOB (CASOB (Sicklepod); [9]): 1.0
- Preemergence herbicidal rating CASOB (CASOB (Sicklepod); [10]): 0.0
- herbicidal rating ORYSAT (ORYSAT (Rice, Tebonnet); rate 0.0156 kg/ha): 2.0
- herbicidal rating ORYSAT (ORYSAT (Rice, Tebonnet); rate 0.0313 kg/ha): 1.5
- herbicidal rating ORYSAT (ORYSAT (Rice, Tebonnet); rate 0.0625 kg/ha): 2.0

SMILES: CCOC(=O)CN1C(=O)C(C(=O)OCC)SC1=Nc1cc(-n2c(=O)cc(C(F)(F)F)n(C)c2=O)c(F)cc1Cl (stereo not shown) [Compound 127, 5-Carboxy-2-{{2-chloro-5-[3,6-dihydro-3-methyl-2,6-dioxo-4-(trifluoromethyl)-1(2H)-pyrimidinyl]-4-fluorophenyl}imino}-4-oxo-3-thiazolidineacetic acid, diethyl ester]
- herbicidal effect rating, CYPSE (CYPSE (Flatsedge); 0.0313 kg/ha): 0.0
- herbicidal effect rating, CYPSE (CYPSE (Flatsedge); 0.0625 kg/ha): 0.0
- herbicidal effect rating, CYPSE (CYPSE (Flatsedge); 0.1250 kg/ha): 0.0
- herbicidal effect rating, CYPSE (CYPSE (Flatsedge); 0.2500 kg/ha): 0.0
- herbicidal rating AMBEL (AMBEL (Ragweed, Common) [1]; rate 0.0156 kg/ha): 9.0
- herbicidal rating AMBEL (AMBEL (Ragweed, Common) [1]; rate 0.0313 kg/ha): 9.0
- herbicidal rating AMBEL (AMBEL (Ragweed, Common) [1]; rate 0.0625 kg/ha): 9.0
- herbicidal rating AMBEL (AMBEL (Ragweed, Common) [1]; rate 0.1250 kg/ha): 9.0
- herbicidal rating ECHCG (ECHCG (Barnyardgrass); rate 0.0156 kg/ha): 0.0
- herbicidal rating ECHCG (ECHCG (Barnyardgrass); rate 0.0313 kg/ha): 0.0
- herbicidal rating ECHCG (ECHCG (Barnyardgrass); rate 0.0625 kg/ha): 1.0
- herbicidal rating ECHCG (ECHCG (Barnyardgrass); rate 0.1250 kg/ha): 3.0
- herbicidal rating ZEAMX (ZEAMX (Corn, Field); rate 0.0156 kg/ha): 4.5
- herbicidal rating ZEAMX (ZEAMX (Corn, Field); rate 0.0313 kg/ha): 4.5
- herbicidal rating ZEAMX (ZEAMX (Corn, Field); rate 0.0625 kg/ha): 7.0
- herbicidal rating ZEAMX (ZEAMX (Corn, Field); rate 0.1250 kg/ha): 8.0
- herbicidal rating CHEAL ([2]; rate 0.0156 kg/ha): 4.0
- herbicidal rating CHEAL ([2]; rate 0.0313 kg/ha): 4.0
- herbicidal rating CHEAL ([2]; rate 0.0625 kg/ha): 9.0
- herbicidal rating CHEAL ([2]; rate 0.1250 kg/ha): 9.0
- Preemergence herbicidal rating GALAP (GALAP (Galium); rate 0.0313 kg/ha): 0.0
- Preemergence herbicidal rating GALAP (GALAP (Galium); rate 0.0625 kg/ha): 3.0
- Preemergence herbicidal rating GALAP (GALAP (Galium); rate 0.1250 kg/ha): 3.0
- Preemergence herbicidal rating GALAP (GALAP (Galium); rate 0.2500 kg/ha): 7.0
- Preemergence herbicidal rating GALAP (GALAP (Galium); rate 0.5000 kg/ha): 9.0
- Preemergence herbicidal rating CHEAL ([3]; rate 0.0313 kg/ha): 9.0
- Preemergence herbicidal rating CHEAL ([3]; rate 0.0625 kg/ha): 9.0
- Preemergence herbicidal rating CHEAL ([3]; rate 0.1250 kg/ha): 9.0
- Preemergence herbicidal rating CHEAL ([3]; rate 0.2500 kg/ha): 9.0
- Preemergence herbicidal rating CHEAL ([3]; rate 0.5000 kg/ha): 9.0
- Preemergence herbicidal rating AMBEL (AMBEL (Ragweed, Common) [4]; rate 0.0313 kg/ha): 0.0
- Preemergence herbicidal rating AMBEL (AMBEL (Ragweed, Common) [4]; rate 0.0625 kg/ha): 0.0
- Preemergence herbicidal rating AMBEL (AMBEL (Ragweed, Common) [4]; rate 0.2500 kg/ha): 5.0
- Preemergence herbicidal rating AMBEL (AMBEL (Ragweed, Common) [4]; rate 0.5000 kg/ha): 9.0
- herbicidal rating ABUTH (ABUTH (Velvetleaf); rate 0.0156 kg/ha): 9.0
- herbicidal rating ABUTH (ABUTH (Velvetleaf); rate 0.0313 kg/ha): 9.0
- herbicidal rating ABUTH (ABUTH (Velvetleaf); rate 0.0625 kg/ha): 9.0
- herbicidal rating ABUTH (ABUTH (Velvetleaf); rate 0.1250 kg/ha): 9.0
- herbicidal rating GLXMAW ([5]; rate 0.0156 kg/ha): 5.0
- herbicidal rating GLXMAW ([5]; rate 0.0313 kg/ha): 5.5
- herbicidal rating GLXMAW ([5]; rate 0.0625 kg/ha): 7.5
- herbicidal rating GLXMAW ([5]; rate 0.1250 kg/ha): 9.0
- Preemergence herbicidal rating CASOB (CASOB (Sicklepod); rate 0.0313 kg/ha): 0.0
- Preemergence herbicidal rating CASOB (CASOB (Sicklepod); rate 0.0625 kg/ha): 0.0
- Preemergence herbicidal rating CASOB (CASOB (Sicklepod); rate 0.1250 kg/ha): 0.0
- Preemergence herbicidal rating CASOB (CASOB (Sicklepod); rate 0.2500 kg/ha): 2.0
- Preemergence herbicidal rating CASOB (CASOB (Sicklepod); rate 0.5000 kg/ha): 6.0
- herbicidal rating ORYSAT (ORYSAT (Rice, Tebonnet); rate 0.0156 kg/ha): 0.5
- herbicidal rating ORYSAT (ORYSAT (Rice, Tebonnet); rate 0.0313 kg/ha): 0.5
- herbicidal rating ORYSAT (ORYSAT (Rice, Tebonnet); rate 0.0625 kg/ha): 0.5
- herbicidal rating ORYSAT (ORYSAT (Rice, Tebonnet); rate 0.1250 kg/ha): 2.5
